The source of these data is patent US20240382471A1, “GLUCAGON-LIKE PEPTIDE-1 RECEPTOR MODULATORS AND USES THEREOF” (HEPAGENE THERAPEUTICS (HK) LIMITED, priority 2021, published 2024).

What is called EC50 is the concentration needed to bring the measured effect to its halfway point.

Test [1] addresses T1, GLP1R (Homo sapiens, UniProt P43220). The experiment in a line: GLP1R cAMP assay (HTRF cAMP detection, agonist activity). It counts as cell-based. On the set-up: host or cells: Flp-In-293. Particulars: Flp-In-293-GLP1R cells, 30 min at 37° C., read-out: EC50 (nM) Assay 1.
Target sequence in this assay (P43220 24-463, species assumed): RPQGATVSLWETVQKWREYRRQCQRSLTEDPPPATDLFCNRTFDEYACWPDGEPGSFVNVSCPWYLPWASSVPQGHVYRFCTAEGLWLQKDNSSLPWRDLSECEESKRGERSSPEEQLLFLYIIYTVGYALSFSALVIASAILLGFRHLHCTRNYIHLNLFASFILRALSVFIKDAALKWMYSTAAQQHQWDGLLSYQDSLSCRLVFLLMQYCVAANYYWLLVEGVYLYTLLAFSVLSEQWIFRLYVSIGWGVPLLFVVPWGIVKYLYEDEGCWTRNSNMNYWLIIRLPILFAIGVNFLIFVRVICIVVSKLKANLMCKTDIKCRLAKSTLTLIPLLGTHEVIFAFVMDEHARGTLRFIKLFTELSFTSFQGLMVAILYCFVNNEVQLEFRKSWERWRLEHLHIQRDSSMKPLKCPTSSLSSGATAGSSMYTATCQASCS
For test [2], the target named is T1, GLP1R. The experiment in a line: GLP1R/CRE-Luc luciferase reporter gene assay (agonist activity). Also noted: host or cells: HKE293 (so in the source). As to conditions: HKE293-Human GLP1R/CRE-luc cells, 5 h at 37° C., read-out: EC50 (nM) Assay 2. It counts as cell-based. Here is the method:
GLP1R-mediated agonist activity was determined with a cell-based functional assay utilizing a britelite plus luciferase reporter gene assay system. The stable cell line overexpress GLP1R and target response element. The stimulation with GLP1R agonist results in the upregulation of intracellular cAMP, which regulate the activities of cAMP-response element binding protein (CREB) and CREB-Luc. Reagents and equipment used in the assay are listed below, followed by the protocol.
• 1) Cell Line: HKE293-Human GLP1R/CRE-luc • 2) Complete Medium: DMEM+10% FBS+1×Penicillin-Streptomycin+400 μg/mL G418
• a) Seed HKE293-Human GLP1R/CRE-luc cells at 20,000 cells/well into 384 well assay plate (6007680-50, PE) using complete medium and incubate overnight. • b) Prepare 6×compound working solution with Medium. • c) Add 5 μL 6×compound working solution into cell plate, incubate 5 h at 37° C. • d) Add 20 μl britelite plus Luciferase Assay Reagent into each well of 384-well assay plate. • e) Record the luminescence value on Envision plate reader.
• 3.1% Activity is calculated as follow:
% Activity=(Signalcmpd−SignalAve_VC)/(SignalAve_PC−SignalAve_VC)×100. • 3.2 Calculate EC50 and Plot effect-dose curve of cmpds:
Y=Bottom+(Top−Bottom)/(1+10^((Log EC50−X)*HillSlope)) • X: log of agonist concentration; Y: % Activity.
Target sequence in this assay (P43220 24-463): as the sequence (P43220 24-463, species assumed) above
(Reporter assays use an easily measured gene product as a stand-in for the process of interest.)

For `N#Cc1ccc(COc2cccc(C34CCN(Cc5nc6ccc(C(=O)O)cc6n5C[C@@H]5CCO5)CC3C4)n2)c(F)c1` (single isomer, unassigned) [Compound 1-1-A], the 50% effective concentration (EC50) was determined as 0.028 nM on GLP1R [1] and 48.7 nM at GLP1R [2]. For the molecule `N#Cc1ccc(COc2cccc(C34CCN(Cc5nc6ccc(C(=O)O)cc6n5C[C@@H]5CCO5)CC3C4)n2)c(F)c1` (single isomer, unassigned) [Compound 1-1-B], the EC50 at GLP1R [1] was 0.035 nM; on GLP1R [2], 84.9 nM. On the same counts, the results for `N#Cc1ccc(COc2cccc(C34CCN(Cc5nc6c(F)cc(C(=O)O)cc6n5C[C@@H]5CCO5)CC3C4)n2)c(F)c1` (single isomer, unassigned) [Compound 1-10-A] are 0.009 nM and 19.3 nM. On the same counts, the results for `N#Cc1ccc(COc2cccc(C34CCN(Cc5nc6c(F)cc(C(=O)O)cc6n5C[C@@H]5CCO5)CC3C4)n2)c(F)c1` (single isomer, unassigned) [Compound 1-10-B] are 0.021 nM and 47.6 nM.

`N#Cc1ccc(COc2cccc(C34CCN(Cc5nc6ccc(C(=O)O)cc6n5C[C@@H]5CCO5)CC3C4)n2)c(F)c1` (stereo partly drawn) [Compound 1-1, 2-[(6-{6-[(4-cyano-2-fluorophenyl)methoxy]pyridin-2-yl}-3-azabicyclo[4.1.0]heptan-3-yl)methyl]-3-[(2S)-oxetan-2-ylmethyl]-1,3-benzodiazole-5-carboxylic acid]: the results for the 50% effective concentration (EC50) at GLP1R [1] and at GLP1R [2] were 0.029 nM and 80.8 nM, respectively.

Consider `O=C(O)c1ccc2nc(CN3CCC4(c5cccc(OCc6ccc(Cl)cc6F)n5)CC4C3)n(C[C@@H]3CCO3)c2c1` (stereo partly drawn) [Compound 1-5, 2-((6-(6-((4-chloro-2-fluorobenzyl)oxy)pyridin-2-yl)-3-azabicyclo[4.1.0]heptan-3-yl)methyl)-1-(((S)-oxetan-2-yl)methyl)-1H-benzo[d]imidazole-6-carboxylic acid], for which the EC50 at GLP1R [1] is 0.03 nM; at GLP1R [2] it was 100 nM. For `O=C(O)c1ccc2nc(CN3CCC4(c5cccc(OCc6ccc(C(F)(F)F)cc6F)n5)CC4C3)n(C[C@@H]3CCO3)c2c1` (stereo partly drawn) [Compound 1-8, 2-{[6-(6-{[2-fluoro-4-(trifluoromethyl)phenyl]methoxy}pyridin-2-yl)-3-azabicyclo[4.1.0]heptan-3-yl]methyl}-3-[(2S)-oxetan-2-ylmethyl]-1,3-benzodiazole-5-carboxylic acid], in that order: 0.035 nM and 108 nM.

In the case of `N#Cc1ccc(COc2cccc(C34CCN(Cc5nc6c(F)cc(C(=O)O)cc6n5C[C@@H]5CCO5)CC3C4)n2)c(F)c1` (stereo partly drawn) [Compound 1-10, 2-((6-(6-((4-cyano-2-fluorobenzyl)oxy)pyridin-2-yl)-3-azabicyclo[4.1.0]heptan-3-yl)methyl)-4-fluoro-1-(((S)-oxetan-2-yl)methyl)-1H-benzo[d]imidazole-6-carboxylic acid], the EC50 on GLP1R [1] amounted to 0.047 nM; at GLP1R [2], 31.2 nM. As for `COc1cc(Cl)ccc1COc1ccnc(C23CCN(Cc4nc5c(OC)cc(C(=O)O)cc5n4C[C@@H]4CCO4)CC2C3)n1` (stereo partly drawn) [Compound 1-47, 2-((6-(4-((4-chloro-2-methoxybenzyl)oxy)pyrimidin-2-yl)-3-azabicyclo[4.1.0]heptan-3-yl)methyl)-4-methoxy-1-(((S)-oxetan-2-yl)methyl)-1H-benzo[d]imidazole-6-carboxylic acid], the EC50 on GLP1R [2] is 3.85 nM. In the case of `CCn1cncc1Cn1c(CN2CCC3(c4nccc(OCc5ccc(C(F)(F)F)cc5OC)n4)CC3C2)nc2c(OC)cc(C(=O)O)cc21` (centres unmarked) [Compound 1-48, 1-((1-ethyl-1H-imidazol-5-yl)methyl)-4-methoxy-2-((6-(4-((2-methoxy-4-(trifluoromethyl)benzyl)oxy)pyrimidin-2-yl)-3-azabicyclo[4.1.0]heptan-3-yl)methyl)-1H-benzo[d]imidazole-6-carboxylic acid], on GLP1R [2], the EC50 was found to be 0.33 nM. As for `C#Cc1ccc(COc2ccnc(C34CCN(Cc5nc6c(OC)cc(C(=O)O)cc6n5C[C@@H]5CCO5)CC3C4)n2)c(OC)c1` (stereo partly drawn) [Compound 1-49, 2-((6-(4-((4-ethynyl-2-methoxybenzyl)oxy)pyrimidin-2-yl)-3-azabicyclo[4.1.0]heptan-3-yl)methyl)-4-methoxy-1-(((S)-oxetan-2-yl)methyl)-1H-benzo[d]imidazole-6-carboxylic acid], on GLP1R [2], the EC50 came out at 10.2 nM.

Turning to `N#Cc1ccc(COc2cccc(N3C4CCC3CN(Cc3nc5ccc(C(=O)O)cc5n3C[C@@H]3CCO3)C4)n2)c(F)c1` [Compound 2-29, 2-((−8-(6-((4-cyano-2-fluorobenzyl)oxy)pyridin-2-yl)-3,8-diazabicyclo[3.2.1]octan-3-yl)methyl)-1-(((S)-oxetan-2-yl)methyl)-1H-benzo[d]imidazole-6-carboxylic acid], the EC50 at GLP1R [1] is 0.287 nM; at GLP1R [2], greater than 1000 nM. For `N#Cc1ccc(COc2ccnc(N3C4CCC3CN(Cc3nc5ccc(C(=O)O)cc5n3C[C@@H]3CCO3)C4)c2)c(F)c1` [Compound 2-34, 2-((−8-(4-((4-cyano-2-fluorobenzyl)oxy)pyridin-2-yl)-3,8-diazabicyclo[3.2.1]octan-3-yl)methyl)-1-(((S)-oxetan-2-yl)methyl)-1H-benzo[d]imidazole-6-carboxylic acid], in that order: greater than 4 nM and greater than 1000 nM. On the same counts, the results for `N#Cc1ccc(COc2cccc(N3C4CCC3CN(Cc3nc5ccc(C(=O)O)cc5n3C[C@@H]3CCO3)C4)c2)c(F)c1` [Compound 2-35, 2-((−8-(3-((4-cyano-2-fluorobenzyl)oxy)phenyl)-3,8-diazabicyclo[3.2.1]octan-3-yl)methyl)-1-(((S)-oxetan-2-yl)methyl)-1H-benzo[d]imidazole-6-carboxylic acid] are 2.79 nM and greater than 1000 nM.

Turning to `COc1cc(C#N)ccc1COc1cccc(C23CCN(Cc4nc5c(F)cc(C(=O)NS(C)(=O)=O)cc5n4C[C@@H]4CCO4)CC2C3)n1` (stereo partly drawn) [Compound 7-1, 2-((6-(6-((4-cyano-2-methoxybenzyl)oxy)pyridin-2-yl)-3-azabicyclo[4.1.0]heptan-3-yl)methyl)-4-fluoro-N-(methylsulfonyl)-1-(((S)-oxetan-2-yl)methyl)-1H-benzo[d]imidazole-6-carboxamide], on GLP1R [2], the half-maximal effective concentration (EC50) was determined as 266 nM.
